Data published in US11903387B2 (priority 2016, dated 2024).
Values joined by “and” are separate entries in the source; they are usually repeats but may differ in a detail not shown here. Identical values can stand only once. Like-named read-outs stand apart in the source and are kept apart here.

Key:
[1] = system: Pseudoperonospora cubensis; assay: Test 2: control effect against cucumber downy mildew; type: in vivo
[2] = system: Phytophthora infestans; assay: whole plant or invertebrate; type: in vivo; settings: for Test 1 preventive value, Measured: applied alone
[3] = Pseudoperonospora cubensis, component (b) alone, 0.4 ppm, read-out: Test 2 Measured
[4] = Pseudoperonospora cubensis, component (b) alone, 2 ppm, read-out: Test 2 Measured
[5] = Pseudoperonospora cubensis, component (b) alone, 10 ppm, read-out: Test 2 Measured
[6] = Phytophthora infestans, in Solanum lycopersicum, read-out: Test 1 Measured, component (b) alone, 0.4 ppm
[7] = Phytophthora infestans, in Solanum lycopersicum, read-out: Test 1 Measured, component (b) alone, 2 ppm
[8] = Phytophthora infestans, in Solanum lycopersicum, read-out: Test 1 Measured, component (b) alone, 10 ppm
[9] = Pseudoperonospora cubensis, applied alone, 10 ppm, read-out: Test 2 preventive value, Measured
[10] = Phytophthora infestans, in Solanum lycopersicum, read-out: Test 1 Measured preventive value, component (b) alone, 2 ppm
[11] = Phytophthora infestans, in Solanum lycopersicum, read-out: Test 1 Measured preventive value, component (b) alone, 10 ppm

CO/C=C(/C(=O)OC)c1ccccc1Oc1cc(Oc2ccccc2C#N)ncn1 [Azoxystrobin]
Test 2 preventive value, Measured ([1]; applied alone, 0.4 ppm): 0 | Test 2 preventive value, Measured ([1]; applied alone, 2 ppm): 0 | Test 2 preventive value, Measured ([1]; applied alone, 10 ppm): 0 | Test 1 preventive value, Measured ([2]; 0.4 ppm): 5.0 | Test 1 preventive value, Measured ([2]; 2 ppm): 66.7 | Test 1 preventive value, Measured ([2]; 10 ppm): 96.2

CCO[PH](=O)O [Fosetyl-aluminum]
Test 2 Measured ([1]; component (b) alone 80 ppm): 0 | Test 2 Measured ([1]; component (b) alone 400 ppm): 22.5 | Test 2 Measured ([1]; component (b) alone 2000 ppm): 49 | Test 1 Measured ([2]; component (b) alone 80 ppm): 31.7 | Test 1 Measured ([2]; component (b) alone 400 ppm): 85.7

Cc1cc(C(F)(F)F)nn1CC(=O)N1CCC(c2nc(C3OCc4c(F)ccc(OS(C)(=O)=O)c4CO3)cs2)CC1 (stereo not drawn) [Compound 1-8, 4-[4-(6-fluoro-9-methylsulfonyloxy-1,5-dihydro-3H-2,4-benzodioxepin-3-yl)-2-thiazolyl]-1-[2-[5-methyl-3-(trifluoromethyl)-1H-pyrazol-1-yl]acetyl]piperidine]
Test 2 Measured preventive value ([1]; Compound alone, 0.012 ppm): 10 and 12.5 and 15 | Test 2 Measured preventive value ([1]; Compound alone, 0.06 ppm): 95.5 and 96.5 and 97.5 | Test 2 Measured preventive value ([1]; Compound alone, 0.3 ppm): 100 | pest or weed control at 0.06 ppm ([1]; Pseudoperonospora cubensis, Compound alone 0.06 ppm, read-out: Test 2 Measured): 98.8% | pest or weed control at 0.3 ppm ([1]; Pseudoperonospora cubensis, Compound alone 0.3 ppm, read-out: Test 2 Measured): 100% | pest or weed control at 0.06 ppm ([1]; Pseudoperonospora cubensis, applied alone, 0.06 ppm, read-out: Test 2 preventive value, Measured): 98% | pest or weed control at 0.3 ppm ([1]; Pseudoperonospora cubensis, applied alone, 0.3 ppm, read-out: Test 2 preventive value, Measured): 100% | Test 2 preventive value, Measured ([1]; applied alone, 0.06 ppm): 98 | Test 1 Measured preventive value ([2]; Compound alone, 0.3 ppm): 100 | pest or weed control at 0.012 ppm ([2]; Phytophthora infestans, in Solanum lycopersicum, read-out: Test 1 Measured preventive value, Compound alone, 0.012 ppm): 30% | pest or weed control at 0.06 ppm ([2]; Phytophthora infestans, in Solanum lycopersicum, read-out: Test 1 Measured preventive value, Compound alone, 0.06 ppm): 98% | pest or weed control at 0.3 ppm ([2]; Phytophthora infestans, in Solanum lycopersicum, read-out: Test 1 Measured preventive value, Compound alone, 0.3 ppm): 100% | pest or weed control at 0.06 ppm ([2]; Phytophthora infestans, in Solanum lycopersicum, read-out: Test 1 Measured, Compound alone 0.06 ppm): 96.2% | pest or weed control at 0.3 ppm ([2]; Phytophthora infestans, in Solanum lycopersicum, read-out: Test 1 Measured, Compound alone 0.3 ppm): 100% | pest or weed control at 0.012 ppm ([2]; Phytophthora infestans, in Solanum lycopersicum, read-out: Test 1 preventive value, Measured, applied alone, 0.012 ppm): 43.3% | pest or weed control at 0.06 ppm ([2]; Phytophthora infestans, in Solanum lycopersicum, read-out: Test 1 preventive value, Measured, applied alone, 0.06 ppm): 97.7% | pest or weed control at 0.3 ppm ([2]; Phytophthora infestans, in Solanum lycopersicum, read-out: Test 1 preventive value, Measured, applied alone, 0.3 ppm): 100%

CSC1=N[C@@](C)(c2ccccc2)C(=O)N1Nc1ccccc1 [Fenamidone]
pest or weed control at 0.4 ppm [1, 3]: 0% | pest or weed control at 2 ppm [1, 4]: 0% | pest or weed control at 10 ppm [1, 5]: 0% | pest or weed control at 0.4 ppm [2, 6]: 16.7% | pest or weed control at 2 ppm [2, 7]: 94.2% | pest or weed control at 10 ppm [2, 8]: 98.5%

N#Cc1c(Cl)c(Cl)c(Cl)c(C#N)c1Cl [Chlorothalonil]
pest or weed control at 0.4 ppm ([1]; Pseudoperonospora cubensis, applied alone, 0.4 ppm, read-out: Test 2 preventive value, Measured): 41.8% | pest or weed control at 2 ppm ([1]; Pseudoperonospora cubensis, applied alone, 2 ppm, read-out: Test 2 preventive value, Measured): 100% | pest or weed control at 10 ppm [1, 9]: 100% | pest or weed control at 0.4 ppm [1, 3]: 0% | pest or weed control at 2 ppm [1, 4]: 80.5% | pest or weed control at 10 ppm [1, 5]: 100% | pest or weed control at 0.4 ppm ([2]; Phytophthora infestans, in Solanum lycopersicum, read-out: Test 1 Measured preventive value, component (b) alone, 0.4 ppm): 0% | pest or weed control at 2 ppm [2, 10]: 53.3% | pest or weed control at 10 ppm [2, 11]: 100% | pest or weed control at 0.4 ppm [2, 6]: 0% | pest or weed control at 2 ppm [2, 7]: 62.1% | pest or weed control at 10 ppm [2, 8]: 100%

Mancozeb
Test 2 Measured ([1]; component (b) alone, 2 ppm): 33 | Test 2 Measured ([1]; component (b) alone, 10 ppm): 100 | Test 2 Measured preventive value ([1]; component (b) alone, 10 ppm): 99 | Test 2 Measured ([1]; component (b) alone, 50 ppm): 100 | Test 2 Measured preventive value ([1]; component (b) alone, 50 ppm): 100 | Test 1 Measured ([2]; component (b) alone, 2 ppm): 21.8 | Test 1 Measured preventive value ([2]; component (b) alone, 2 ppm): 11.7 | Test 1 Measured ([2]; component (b) alone, 10 ppm): 80.5 | Test 1 Measured preventive value ([2]; component (b) alone, 10 ppm): 84.2 | Test 1 Measured ([2]; component (b) alone, 50 ppm): 100.0 | Test 1 Measured preventive value ([2]; component (b) alone, 50 ppm): 100.0

CC(C)(C)C(O)(CCc1ccc(Cl)cc1)Cn1cncn1 (stereo not drawn) [Tebuconazole]
pest or weed control at 20 ppm ([1]; Pseudoperonospora cubensis, component (b) alone 20 ppm, read-out: Test 2 Measured): 0% | pest or weed control at 100 ppm ([1]; Pseudoperonospora cubensis, component (b) alone 100 ppm, read-out: Test 2 Measured): 10% | pest or weed control at 500 ppm ([1]; Pseudoperonospora cubensis, component (b) alone 500 ppm, read-out: Test 2 Measured): 97% | pest or weed control at 20 ppm ([2]; Phytophthora infestans, in Solanum lycopersicum, read-out: Test 1 Measured, component (b) alone 20 ppm): 0% | pest or weed control at 100 ppm ([2]; Phytophthora infestans, in Solanum lycopersicum, read-out: Test 1 Measured, component (b) alone 100 ppm): 0% | pest or weed control at 500 ppm ([2]; Phytophthora infestans, in Solanum lycopersicum, read-out: Test 1 Measured, component (b) alone 500 ppm): 16.7%

CCCC1COC(Cn2cncn2)(c2ccc(Cl)cc2Cl)O1 (stereo not drawn) [Propiconazole]
pest or weed control at 8 ppm ([1]; Pseudoperonospora cubensis, component (b) alone 8 ppm, read-out: Test 2 Measured): 0% | pest or weed control at 40 ppm ([1]; Pseudoperonospora cubensis, component (b) alone 40 ppm, read-out: Test 2 Measured): 7.5% | pest or weed control at 200 ppm ([1]; Pseudoperonospora cubensis, component (b) alone 200 ppm, read-out: Test 2 Measured): 57.5% | pest or weed control at 8 ppm ([2]; Phytophthora infestans, in Solanum lycopersicum, read-out: Test 1 Measured, component (b) alone 8 ppm): 0% | pest or weed control at 40 ppm ([2]; Phytophthora infestans, in Solanum lycopersicum, read-out: Test 1 Measured, component (b) alone 40 ppm): 35% | pest or weed control at 200 ppm ([2]; Phytophthora infestans, in Solanum lycopersicum, read-out: Test 1 Measured, component (b) alone 200 ppm): 53.3%

COC(=O)NCc1cc(/C(C)=N/OCc2cccc(C)n2)ccc1Cl [Pyribencarb]
pest or weed control at 10 ppm [1, 9]: 0% | pest or weed control at 50 ppm ([1]; Pseudoperonospora cubensis, applied alone, 50 ppm, read-out: Test 2 preventive value, Measured): 0% | pest or weed control at 250 ppm ([1]; Pseudoperonospora cubensis, applied alone, 250 ppm, read-out: Test 2 preventive value, Measured): 10% | pest or weed control at 10 ppm ([2]; Phytophthora infestans, in Solanum lycopersicum, read-out: Test 1 preventive value, Measured, applied alone, 10 ppm): 8.3% | pest or weed control at 50 ppm ([2]; Phytophthora infestans, in Solanum lycopersicum, read-out: Test 1 preventive value, Measured, applied alone, 50 ppm): 11.7% | pest or weed control at 250 ppm ([2]; Phytophthora infestans, in Solanum lycopersicum, read-out: Test 1 preventive value, Measured, applied alone, 250 ppm): 23.3%

O=C1C2CC=CCC2C(=O)N1SC(Cl)(Cl)Cl (stereo not drawn) [Captan]
pest or weed control at 2 ppm [1, 4]: 90.1% | pest or weed control at 10 ppm [1, 5]: 99% | pest or weed control at 50 ppm ([1]; Pseudoperonospora cubensis, component (b) alone, 50 ppm, read-out: Test 2 Measured): 99% | Test 2 Measured preventive value ([1]; component (b) alone, 2 ppm): 96 and 100 | Test 2 Measured preventive value ([1]; component (b) alone, 10 ppm): 99.3 | Test 2 Measured preventive value ([1]; component (b) alone, 50 ppm): 100 and 96 | pest or weed control at 2 ppm [2, 10]: 5% | pest or weed control at 10 ppm [2, 11]: 71.7% | pest or weed control at 50 ppm ([2]; Phytophthora infestans, in Solanum lycopersicum, read-out: Test 1 Measured preventive value, component (b) alone, 50 ppm): 93.8% | pest or weed control at 2 ppm [2, 7]: 10% | pest or weed control at 10 ppm [2, 8]: 64.5% | pest or weed control at 50 ppm ([2]; Phytophthora infestans, in Solanum lycopersicum, read-out: Test 1 Measured, component (b) alone, 50 ppm): 90%
